Values after ≈ are worked out from the molar mass of the structure shown. Residues, ends and D or L forms follow the SMILES beside them. A value given as a limit tells only on which side of the number the result lay.

Series [1] has as its system Staphylococcus aureus. The series can be described thus: Antibacterial activity against methicillin-sensitive Staphylococcus aureus ATCC 49775 incubated for 16 to 20 hrs by CLSI based broth microdilution method. The settings on record: time 16-20 hrs. It counts as functional. Background: In broth dilution the organism is exposed to a series of concentrations in liquid medium.

The subject of series [2] is Staphylococcus aureus. The series can be described thus: Antibacterial activity against methicillin-sensitive Staphylococcus aureus ATCC 29213 incubated for 16 to 20 hrs by CLSI based broth microdilution method. It counts as functional. Conditions: time 16-20 hrs.
Series [3] deals with Staphylococcus aureus. Briefly: Antibacterial activity against methicillin-resistant Staphylococcus aureus ATCC USA300 incubated for 16 to 20 hrs by CLSI based broth microdilution method. It counts as functional. The settings on record: time 16-20 hrs.
Series [4] has as its system Staphylococcus aureus. Briefly: Antibacterial activity against methicillin-resistant Staphylococcus aureus […] incubated for 16 to 20 hrs by CLSI based broth microdilution method. The format is functional. The settings on record: time 16-20 hrs.
Series [5] in a line: Hemolytic activity in sheep erythrocytes incubated for 30 mins by absorbance based assay. It counts as toxicity, cell-based, Ovis aries, Erythrocyte.
A short description of series [6]: Retention time of the compound by RP-HPLC analysis. The format is physicochemical.
Series [7] concerns HEK293. Briefly: Nephrotoxicity against HEK293 cells at MIC incubated for 24 hrs by MTT assay. It counts as toxicity, cell-based. The settings on record: human, hek293, 24 h. A general note: Tetrazolium dyes change colour on reduction, which living cells bring about.
Series [8] in a line: Nephrotoxicity against HEK293 cells assessed as cell viability at 12.5 uM incubated for 24 hrs by MTT assay relative to control. The format is toxicity, cell-based. The settings on record: human, read-out: Activity.

In the case of `CC(C)C[C@@H]1NC(=O)[C@H](CCCNC(=N)N)NC(=O)[C@H](C(C)C)NC(=O)[C@@H]2CCCN2C(=O)[C@@H](Cc2ccccc2)NC(=O)[C@H](CC(C)C)NC(=O)[C@H](CCCN)NC(=O)[C@H](C(C)C)NC(=O)[C@@H]2CCCN2C(=O)[C@@H](CCCNC(=N)N)NC1=O`, the MIC in series [1], in series [2], in series [3] and in series [4] was 8 µg/mL (≈ 6.71 µM) in each case. The HC50 at 0.5 h in series [5] is > 100 µM. The compound further showed a Retention_time in series [6] of 16.47 min.

With `CC(C)C[C@@H]1NC(=O)[C@H](CCCN)NC(=O)[C@H](C(C)C)NC(=O)[C@@H]2CCCN2C(=O)[C@@H](Cc2ccccc2)NC(=O)[C@H](CC(C)C)NC(=O)[C@H](CCCN)NC(=O)[C@H](C(C)C)NC(=O)[C@@H]2CCCN2C(=O)[C@@H](CCCNC(=N)N)NC1=O` (HELM PEPTIDE1{L.[dF].P.V.[Orn].L.[dR].P.V.[Orn]}$PEPTIDE1,PEPTIDE1,1:R1-10:R2$$$V2.0), the MIC in series [1], in series [2], in series [3] and in series [4] was 8 µg/mL (≈ 6.95 µM) each time. For the same compound, the Activity entry in series [7] is “Non-Toxic”. Further, the viability at 24 h, 12.5 µM in series [8] is ~90%. For the same compound, the HC50 at 0.5 h in series [5] is > 100 µM. Moreover, the Retention_time in series [6] was 16.22 min.

Regarding `CC(C)C[C@@H]1NC(=O)[C@H](CCCN)NC(=O)[C@H](C(C)C)NC(=O)[C@@H]2CCCN2C(=O)[C@@H](Cc2ccccc2)NC(=O)[C@H](CC(C)C)NC(=O)[C@H](CCCN)NC(=O)[C@H](C(C)C)NC(=O)[C@@H]2CCCN2C(=O)[C@@H](Cc2ccccc2)NC1=O` [GRAMICIDIN S] (HELM PEPTIDE1{L.[dF].P.V.[Orn].L.[dF].P.V.[Orn]}$PEPTIDE1,PEPTIDE1,1:R1-10:R2$$$V2.0), the MIC in series [1], in series [2], in series [3] and in series [4] was 4 µg/mL (≈ 3.5 µM) each time. Further, in series [8], the viability at 24 h, 12.5 µM stood at 25%. The HC50 at 0.5 h in series [5] was 60.1 µM. For the same compound, the Retention_time in series [6] was 18.57 min.

As for `CC(C)C[C@@H]1NC(=O)[C@H](CCCN)NC(=O)[C@H](C(C)C)NC(=O)[C@@H]2CCCN2C(=O)[C@@H](Cc2ccccc2)NC(=O)[C@H](CC(C)C)NC(=O)[C@H](CCCNC(=N)N)NC(=O)[C@H](C(C)C)NC(=O)[C@@H]2CCCN2C(=O)[C@@H](CCCNC(=N)N)NC1=O` (HELM PEPTIDE1{L.[dF].P.V.[Orn].L.[dR].P.V.R}$PEPTIDE1,PEPTIDE1,1:R1-10:R2$$$V2.0), the MIC in series [1], in series [2], in series [3] and in series [4] was 8 µg/mL (≈ 6.71 µM) each time. The HC50 at 0.5 h in series [5] is 87.2 µM. The compound further gave a Retention_time in series [6] of 16.47 min.

As for `CC(C)C[C@@H]1NC(=O)[C@H](CCCN)NC(=O)[C@H](C(C)C)NC(=O)[C@@H]2CCCN2C(=O)[C@@H](CCCNC(=N)N)NC(=O)[C@H](CC(C)C)NC(=O)[C@H](CCCN)NC(=O)[C@H](C(C)C)NC(=O)[C@@H]2CCCN2C(=O)[C@@H](CCCNC(=N)N)NC1=O`, the MIC in series [1] is 32 µg/mL (≈ 27.6 µM); in series [2] it was 16 µg/mL (≈ 13.8 µM); in series [3], 32 µg/mL (≈ 27.6 µM); in series [4], 16 µg/mL (≈ 13.8 µM). Moreover, in series [5], the HC50 at 0.5 h is > 100 µM. Moreover, the Retention_time in series [6] was found to be 14.56 min.

For `CC(C)C[C@@H]1NC(=O)[C@H](CCCN)NC(=O)[C@H](C(C)C)NC(=O)[C@@H]2CCCN2C(=O)[C@@H](Cc2c[nH]cn2)NC(=O)[C@H](CC(C)C)NC(=O)[C@H](CCCN)NC(=O)[C@H](C(C)C)NC(=O)[C@@H]2CCCN2C(=O)[C@@H](Cc2c[nH]cn2)NC1=O`, the MIC in series [1] is 256 µg/mL (≈ 228 µM); in series [2], 256 µg/mL (≈ 228 µM); in series [3], > 256 µg/mL; in series [4] it was 256 µg/mL (≈ 228 µM). In addition, the concentration for 50% haemolysis (HC50) at 0.5 h in series [5] is > 100 µM. Besides, in series [6], the Retention_time came to 14.01 min.

In the case of `CC(C)C[C@@H]1NC(=O)[C@H](CCCN)NC(=O)[C@H](C(C)C)NC(=O)[C@@H]2CCCN2C(=O)[C@@H](Cc2ccccc2)NC(=O)[C@H](CC(C)C)NC(=O)[C@H](CCCNC(=N)N)NC(=O)[C@H](C(C)C)NC(=O)[C@@H]2CCCN2C(=O)[C@@H](Cc2ccccc2)NC1=O`, the MIC was 4 µg/mL (≈ 3.38 µM) in series [1], 8 µg/mL (≈ 6.76 µM) in series [2], 8 µg/mL (≈ 6.76 µM) in series [3] and 16 µg/mL (≈ 13.5 µM) in series [4]. Moreover, the HC50 at 0.5 h in series [5] came out at 46.2 µM. The compound further registered a Retention_time in series [6] of 18.74 min.

In the case of `CC(C)C[C@@H]1NC(=O)[C@H](CCCNC(=N)N)NC(=O)[C@H](C(C)C)NC(=O)[C@@H]2CCCN2C(=O)[C@@H](Cc2ccccc2)NC(=O)[C@H](CC(C)C)NC(=O)[C@H](CCCNC(=N)N)NC(=O)[C@H](C(C)C)NC(=O)[C@@H]2CCCN2C(=O)[C@@H](Cc2ccccc2)NC1=O`, the MIC in series [1], in series [2], in series [3] and in series [4] was 8 µg/mL (≈ 6.53 µM) each time. In series [5], this compound displayed an HC50 at 0.5 h of 25.4 µM. This compound also returned a Retention_time in series [6] of 18.62 min.

Turning to `CC(C)C[C@@H]1NC(=O)[C@H](CCCNC(=N)N)NC(=O)[C@H](C(C)C)NC(=O)[C@@H]2CCCN2C(=O)[C@@H](Cc2c[nH]cn2)NC(=O)[C@H](CC(C)C)NC(=O)[C@H](CCCN)NC(=O)[C@H](C(C)C)NC(=O)[C@@H]2CCCN2C(=O)[C@@H](Cc2ccccc2)NC1=O`, the MIC in series [1], in series [2], in series [3] and in series [4] was 16 µg/mL (≈ 13.6 µM) in each case. Also, the HC50 at 0.5 h in series [5] was > 100 µM. This compound returned a Retention_time in series [6] of 16.09 min.

Consider `CC(C)C[C@@H]1NC(=O)[C@H](CCCN)NC(=O)[C@H](C(C)C)NC(=O)[C@H](Cc2c[nH]cn2)NC(=O)[C@@H](Cc2ccccc2)NC(=O)[C@H](CC(C)C)NC(=O)[C@H](CCCN)NC(=O)[C@H](C(C)C)NC(=O)[C@H](Cc2c[nH]cn2)NC(=O)[C@@H](Cc2ccccc2)NC1=O`, for which the MIC was 64 µg/mL (≈ 52.4 µM) in series [1], 64 µg/mL (≈ 52.4 µM) in series [2], 128 µg/mL (≈ 105 µM) in series [3] and 64 µg/mL (≈ 52.4 µM) in series [4]. Besides, the HC50 at 0.5 h in series [5] is > 100 µM. The Retention_time in series [6] is 14.74 min.

By MIC is commonly meant the lowest concentration that inhibits growth of the organism. The low end stands for a more susceptible organism, the high end for a less susceptible organism. By HC50 is commonly meant the concentration that lyses half of the red blood cells. Read a high HC50 as less damage to red cells.

(Values after ChEMBL document CHEMBL5500408, “A New Gramicidin S Analogue with Potent Antibacterial Activity and Negligible Hemolytic Toxicity” (J Med Chem, 2024).)
